According to US4137227A, “1-Alkyl-1,4-dihydro-4-oxo-7-triazenyl-3-quinolinecarboxylic acids” (Sterling Drug Inc., priority 1977, dated 1979):
≈ marks a conversion by molar mass, not a printed value. Like-named read-outs stand apart in the source and are kept apart here.

Assays:
[1] = test system: P-388 tumor; conditions: cited from earlier work; for life-span of mice bearing i.p. implanted P-388 tumor: control animals 10 days
[2] = test system: L-1210 leukemia; conditions: 30 to 40 mg/kg dosage; cited from earlier work
[3] = test system: S. aureus (Smith); test: Autotiter in vitro antibacterial test, S. aureus (Smith); assay type: cell-based; conditions: Staphylococcus aureus, 18-20 hours at 37° C., read-out: minimal inhibitory concentration (MIC)
Procedure: (§1) The antibacterial activity of the compounds of formula I was determined using a modification of the Autotiter® method described by Goss et al. [Applied Microbiology 16 (9), 1414-1416 (1968)] in which a 1,000 mcg./ml. solution of the test compound is prepared. To the first cup of the Autotray® is added 0.1 ml. of the test solution. Activation of the Autotiter initiates a sequence of operations by which 0.05 ml. of the test compound solution is withdrawn from the cup by a Microtiter® transfer loop and diluted in 0.05 ml. of sterile water. Following this operation, 0.05 ml. of inoculated double-strength semisynthetic medium (glucose) is added automatically to each cup. The overall operation results in final drug concentrations ranging from 500 to 0.06 mcg./ml. in twofold decrements. The Autotray is incubated for 18-20 hours at 37° C. at which time the trays are examined visually for growth as evidenced by turbidity, and the concentration of the last sample in the series showing no growth (or no turbidity) is recorded as the minimal inhibitory concentration (MIC) in mcg./ml. The compounds were thus tested as solutions and found active in the range of 7.8 to 125 mcg./ml. (MIC) against one or more of various gram positive and gram negative bacteria including Staphylococcus aureus, Proteus mirabilis, Escherichia coli, Klebsiella pneumoniae and Streptococcus pyogenes.

[4] = test system: E. coli (Vogel); test: Autotiter in vitro antibacterial test, E. coli (Vogel); assay type: cell-based; conditions: Escherichia coli, 18-20 hours at 37° C., read-out: minimal inhibitory concentration (MIC)
Procedure: as §1

[5] = test system: Kleb. pneumoniae; test: Autotiter in vitro antibacterial test, Kleb. pneumoniae; assay type: cell-based; conditions: Klebsiella pneumoniae, 18-20 hours at 37° C., read-out: minimal inhibitory concentration (MIC)
Procedure: as §1

[6] = test system: Strep. pyogens; test: Autotiter in vitro antibacterial test, Strep. pyogens; assay type: cell-based; conditions: Streptococcus pyogenes, 18-20 hours at 37° C., read-out: minimal inhibitory concentration (MIC)
Procedure: as §1

[7] = test system: Prot. mirabilis; test: Autotiter in vitro antibacterial test, Prot. mirabilis; assay type: cell-based; conditions: Proteus mirabilis, 18-20 hours at 37° C., read-out: minimal inhibitory concentration (MIC)
Procedure: as §1

[8] = test system: E. coli (1100/B22); test: Autotiter in vitro antibacterial test, E. coli (1100/B22); assay type: cell-based; conditions: Escherichia coli, 18-20 hours at 37° C., read-out: minimal inhibitory concentration (MIC)
Procedure: as §1

[9] = cited from earlier work

| Structure (SMILES) | activity against P-388 tumor (in words) ([1]; up to 40 mg/kg) | MIC [3] | MIC [4] | MIC [5] | MIC [6] | MIC [7] | further results |
| --- | --- | --- | --- | --- | --- | --- | --- |
| CN(C)N=Nc1ccnc2ccc(Cl)cc12 [Example 6-chloro, 6-chloro-4-(3,3-dimethyl-1-triazeno)quinoline] | – | – | – | – | – | – | activity against P-388 tumor (in words) ([1]; i.p. dosage of 30 mg/kg): active; life-span of mice bearing i.p. implanted P-388 tumor ([1]; i.p. dosage of 30 mg/kg): 16 to 18 days |
| CN(C)N=Nc1ccnc2ccc(Br)cc12 [Example 6-bromo] | inactive | – | – | – | – | – | activity against mouse L-1210 leukemia (in words) [2]: active; increase of life-span, mouse L-1210 leukemia [2]: 50% |
| CCn1cc(C(=O)O)c(=O)c2ccc(N=NN(C)C)cc21 [Example E-1, 1-Ethyl-1,4-dihydro-7-(3,3-dimethyl-1-triazenyl)-4-oxo-3-quinolinecarboxylic Acid] | – | 15.6 µg/mL (≈ 54.1 µM) | 7.8 µg/mL (≈ 27.1 µM) | 500 µg/mL (≈ 1730 µM) | 125 µg/mL (≈ 434 µM) | – | – |
| CN(C)N=Nc1ccnc2ccc(I)cc12 [Example 6-iodo] | inactive | – | – | – | – | – | – |
| CN(C)N=Nc1ccnc2c(Br)cccc12 [Example 8-bromo] | inactive | – | – | – | – | – | activity against mouse L-1210 leukemia (in words) [2]: active; increase of life-span, mouse L-1210 leukemia [2]: 65% |
| CN(C)N=Nc1ccc2c(=O)c(C(=O)O)cn(C)c2c1 [Example E-2, 1,4-Dihydro-1-methyl-7-(3,3-dimethyl-1-triazenyl)-4-oxo-3-quinolinecarboxylic Acid] | – | 62.5 µg/mL (≈ 228 µM) | 125 µg/mL (≈ 456 µM) | > 125 µg/mL | 62.5 µg/mL (≈ 228 µM) | > 125 µg/mL | MIC [8]: > 250 µg/mL |
| CN(C)N=Nc1ccnc2cc(Br)ccc12 [Example 7-bromo] | inactive | – | – | – | – | – | – |
| CCCn1cc(C(=O)O)c(=O)c2ccc(N=NN(C)C)cc21 [Example E-3, 1,4-Dihydro-7-(3,3-dimethyl-1-triazenyl)-4-oxo-1-n-propyl-3-quinolinecarboxylic Acid] | – | > 62.5 µg/mL | > 62.5 µg/mL | > 125 µg/mL | 31.3 µg/mL (≈ 104 µM) | > 125 µg/mL | MIC [8]: > 62.5 µg/mL |
| CCn1cc(C(=O)O)c(=O)c2ccc(N=NN3CCN(C)CC3)cc21 [Example E-5, 1-Ethyl-1,4-dihydro-7-[(4-methyl-1-piperazinyl)azo]-4-oxo-3-quinolinecarboxylic Acid] | – | 31.3 µg/mL (≈ 91.2 µM) | 15.6 µg/mL (≈ 45.4 µM) | 62.5 µg/mL (≈ 182 µM) | 125 µg/mL (≈ 364 µM) | 125 µg/mL (≈ 364 µM) | – |
| CN(C)N=Nc1cnc2ccccc2c1 [3,3-dimethyl-1-(3'-quinolinyl)triazene] | – | – | – | – | – | – | stability of crude product on drying ([9]; allowed to dry while crude): decomposes in a puff of smoke; stability of crude product ([9]; crude product): Crude product is very unstable; stability during microanalysis ([9]; during microanalysis): Explodes during microanalysis; stability of purified material on storage ([9]; purified material, on storage): darkens rapidly, but less dramatically, on storage |
| CN(C)N=Nc1ccnc2c(Cl)cccc12 [Example 8-chloro, 8-chloro-4-(3,3-dimethyl-1-triazeno)quinoline] | – | – | – | – | – | – | activity against P-388 tumor (in words) ([1]; i.p. dosage of 30 mg/kg): active; life-span of mice bearing i.p. implanted P-388 tumor ([1]; i.p. dosage of 30 mg/kg): 16 to 18 days; activity against mouse L-1210 leukemia (in words) [2]: active; increase of life-span, mouse L-1210 leukemia [2]: 65% |
| CCCn1cc(C(=O)O)c(=O)c2ccc(N=NN(CC)CC)cc21 [Example E-4, 7-(3,3Diethyl-1-triazenyl)-1,4-dihydro-4-oxo-1-n-propyl-3-quinolinecarboxylic Acid] | – | 62.5 µg/mL (≈ 189 µM) | > 500 µg/mL | > 500 µg/mL | 62.5 µg/mL (≈ 189 µM) | > 500 µg/mL | MIC [8]: > 500 µg/mL |
| CN(C)N=Nc1ccnc2cc(Cl)ccc12 [Example 7-chloro, 7-chloro-4-(3,3-dimethyl-1-triazeno)quinoline] | – | – | – | – | – | – | activity against P-388 tumor (in words) ([1]; i.p. dosage of 30 mg/kg): active; life-span of mice bearing i.p. implanted P-388 tumor ([1]; i.p. dosage of 30 mg/kg): 16 to 18 days |
